In patent US20070249620A1, “Urea Derivative” (priority 2004, published 2007):

Assays:
mouse DGAT1 = target: T1, mouse DGAT1 (Mus musculus, UniProt Q9Z2A7); assay: DGAT1 inhibitory effect test (microsome fraction, [14C]-oleoyl-CoA, triglyceride radioactivity by TLC); format: biochemical; details: 0.5 h; concentration of the test compound 0.1 μg/ml; mouse DGAT1 microsomes, 23° C., 30 minutes; read-out: Inhibitory ratio
T1 construct: made in house; host or cells: insect cells (High Five, Sf9, Sf21, etc.), baculovirus expression system (Invitrogen)
T1 sequence (Q9Z2A7 1-498): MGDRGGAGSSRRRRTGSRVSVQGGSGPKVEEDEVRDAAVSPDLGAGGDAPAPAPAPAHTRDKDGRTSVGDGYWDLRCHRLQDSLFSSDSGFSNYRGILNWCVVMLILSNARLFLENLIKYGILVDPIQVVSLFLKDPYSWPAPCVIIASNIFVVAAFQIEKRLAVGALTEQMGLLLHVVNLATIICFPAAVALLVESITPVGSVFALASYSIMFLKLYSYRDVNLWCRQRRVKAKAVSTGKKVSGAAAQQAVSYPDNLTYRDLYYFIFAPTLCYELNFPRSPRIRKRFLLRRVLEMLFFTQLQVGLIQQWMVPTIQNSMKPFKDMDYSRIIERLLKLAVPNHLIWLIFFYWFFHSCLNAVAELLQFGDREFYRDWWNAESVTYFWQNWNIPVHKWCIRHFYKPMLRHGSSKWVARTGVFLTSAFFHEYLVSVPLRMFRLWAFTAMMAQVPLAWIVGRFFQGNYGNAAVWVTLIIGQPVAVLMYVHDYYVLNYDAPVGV
Summary of the method: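 Inhibition was scored from radiolabelled triglyceride separated by TLC, relative to vehicle and net of a 0-min background. The reaction ran for 30 min at room temperature (23 °C) in Tris-HCl pH 8.0 with MgCl2, BSA and Triton X-100. Substrates were 30 μM [14C]-oleoyl-CoA and 0.5 mM dioleoylglycerol, with mouse DGAT1 microsomes from baculovirus-infected insect cells as enzyme.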

inhibition at 0.1 µg/mL (mouse DGAT1) [%]	melting point [°C]	Structure (SMILES)
≥ 50	135 to 139	COc1cc(NC(=O)Nc2ccc(C3=CCN(C(=O)Nc4ccc(OCCO)cc4Cl)CC3)cc2)cc(OC)c1 [Example 259, 4-{4-[3-(3,5-dimethoxy-phenyl)-ureido]-phenyl}-3,6-dihydro-2H-pyridine-1-carboxylic acid [2-chloro-4-(2-hydroxy-ethoxy)-phenyl]-amide]
≥ 50	164 to 166	CCOc1ccccc1NC(=O)Nc1ccc(N2CCN(C(=O)Nc3c(Cl)cccc3Cl)CC2)cc1 [Example 133, 4-{4-[3-(2-ethoxy-phenyl)-ureido]-phenyl}-piperazine-1-carboxylic acid (2,6-dichloro-phenyl)-amide]
≥ 50	120 to 125	COc1ccccc1NC(=O)Nc1ccc(C2=CCN(C(=O)Nc3ccc(OCCO)cc3Cl)CC2)cc1 [Example 258, 4-{4-[3-(2-methoxy-phenyl)-ureido]-phenyl}-3,6-dihydro-2H-pyridine-1-carboxylic acid [2-chloro-4-(2-hydroxy-ethoxy)-phenyl]-amide]
≥ 50	203 to 205	COc1ccc(Cl)cc1NC(=O)Nc1ccc(N2CCN(C(=O)Nc3ncccc3C)CC2)nc1 [Example 308, 4-{5-[3-(5-chloro-2-methoxy-phenyl)-ureido]-pyridin-2-yl}-piperazine-1-carboxylic acid (3-methyl-pyridin-2-yl)-amide]
≥ 50	228 to 230	Cc1cccc(Cl)c1NC(=O)N1CCN(c2ccc(NC(=O)Nc3cc(C(F)(F)F)ccc3F)cc2)CC1 [Example 163, 4-{4-[3-(2-fluoro-5-trifluoromethyl-phenyl)-ureido]-phenyl}-piperazine-1-carboxylic acid (2-chloro-6-methyl-phenyl)-amide]
≥ 50	114 to 116	COc1cc(NC(=O)Nc2ccc(N3CCN(C(=O)Nc4ccc(OCCO)cc4Cl)CC3)cc2)cc(OC)c1 [Example 250, 4-{4-[3-(3,5-dimethoxy-phenyl)-ureido]-phenyl}-piperazine-1-carboxylic acid [2-chloro-4-(2-hydroxy-ethoxy)-phenyl]-amide]
≥ 50	198 to 200	COc1ccc(C)cc1NC(=O)Nc1ccc(N2CCN(C(=O)Nc3ccc(OCCO)cc3C(F)(F)F)CC2)nc1 [Example 220, 4-{5-[3-(2-methoxy-5-methyl-phenyl)-ureido]-pyridin-2-yl}-piperazine-1-carboxylic acid [4-(2-hydroxy-ethoxy)-2-trifluoromethyl-phenyl]-amide]
≥ 50	170 to 172	CCOc1ccccc1NC(=O)Nc1ccc(N2CCN(C(=O)Nc3c(Cl)cccc3Cl)CC2)nc1 [Example 144, 4-{5-[3-(2-ethoxy-phenyl)-ureido]-pyridin-2-yl}-piperazine-1-carboxylic acid (2,6-dichloro-phenyl)-amide]
